Tests used:
Mycoplana ramosa APAH = Mycoplana ramosa APAH (Mycoplana ramosa, UniProt Q48935); assay: APAH inhibition, fluorimetric Fluor-de-Lys assay; assay type: biochemical; conditions: also evaluated after 30 and 60 min incubation times
HDAC8 [1] = target: T1, HDAC8 (Homo sapiens, UniProt Q9BY41); assay: Deacetylation of N^8-acetylspermidine by HDAC8; assay type: biochemical; conditions: overnight incubation with HDAC8; data not shown
T1 sequence (Q9BY41 1-377): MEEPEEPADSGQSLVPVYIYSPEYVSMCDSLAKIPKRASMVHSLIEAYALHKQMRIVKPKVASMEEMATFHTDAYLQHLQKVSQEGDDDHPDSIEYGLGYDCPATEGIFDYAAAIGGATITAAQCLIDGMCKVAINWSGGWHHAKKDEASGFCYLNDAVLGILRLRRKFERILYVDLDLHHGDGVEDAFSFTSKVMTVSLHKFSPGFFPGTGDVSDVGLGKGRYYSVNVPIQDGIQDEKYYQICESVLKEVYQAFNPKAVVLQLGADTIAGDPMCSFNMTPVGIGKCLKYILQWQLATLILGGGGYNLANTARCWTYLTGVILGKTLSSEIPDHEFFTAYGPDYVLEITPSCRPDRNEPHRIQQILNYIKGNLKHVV

HDAC8 [2] = conditions: read-out: IC50 HDAC8; cited from earlier work

Sequence of Mycoplana ramosa APAH (Q48935 whole entry): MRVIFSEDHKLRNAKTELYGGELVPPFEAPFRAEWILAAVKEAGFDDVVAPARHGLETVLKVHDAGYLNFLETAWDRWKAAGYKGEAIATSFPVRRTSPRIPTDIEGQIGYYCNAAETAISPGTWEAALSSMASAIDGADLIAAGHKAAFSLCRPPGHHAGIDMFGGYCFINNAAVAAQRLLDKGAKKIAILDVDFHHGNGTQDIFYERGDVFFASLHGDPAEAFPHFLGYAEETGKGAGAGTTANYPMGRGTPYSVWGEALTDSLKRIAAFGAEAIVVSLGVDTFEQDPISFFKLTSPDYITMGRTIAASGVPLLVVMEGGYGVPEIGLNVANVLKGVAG

With `Cl.NCCCCCCC(=O)NO` [Compound 6, 7-Amino-N-hydroxyheptanamide hydrochloride salt] the “time-dependent inhibition of APAH” value (Mycoplana ramosa APAH) was “not observed”.

With `CC(=O)NCCCCNCCCN` [N^8-acetylspermidine] the “spermidine product formed by HDAC8” value (HDAC8 [1]) was “does not yield any measurable spermidine product”.

For largazole thiol, the IC50 (HDAC8 [2]) is listed as 102 nM.

Reference: publication PMC4526345 (Biochemistry, 2015)
